Test system: Male Balb/c mice
Assay: Intraperitoneal glucose tolerance test (IPGTT)
Assay type: in vivo, mouse
Details: 30 and 60 minute time points; Example 1 at 10, 30, 100 mg/kg oral; positive control 10 mg/kg
Protocol: To examine the ability of Examples 1 to 20 to activate GPR40 in-vivo resulting in desired glucose lowering efficacy, i.e. reduction in plasma glucose levels, an intraperitoneal glucose tolerance test (ipGTT) study is completed, and the data is shown for the compound tested below.
Male Balb/c (Albino mice) mice (8-9 weeks of age) are single housed, and fed with normal rodent chow diet and water ad libitum. Animals are weighed; randomized by body weight; and their daily body weights are recorded. Animals are dosed daily using a formulation carrying methylcellulose and tween-80. On the night before the study, animals are fasted. In the morning, animals are dosed orally with compound or vehicle alone 60 minutes prior to the glucose tolerance test (glucose 2 g/kg, i.p.). Blood glucose levels are determined from tail bleeds taken at 0, 3, 7, 15, 30, and 60 min after glucose challenge. […] Percent lowering in glucose is calculated from the AUC data of the compound with respect to the AUC of vehicle group. The test compound is orally administered at 0.3, 1.0, 3.0, 10, 30, or 100 mg/kg, and a positive control (3-[4-(2-methyl-benzyloxy)-phenyl]-hex-4-ynoic acid, see WO2005086661 (TAK875).) is administered at 10 mg/kg. […] Glucose levels are lowered at the 30, and 60 minute time points for the positive control.

SMILES | Glucose levels compared to vehicle control
Cc1cc(OCCCS(C)(=O)=O)cc(C)c1-c1cccc(COc2ccc3c(c2)OC[C@H]3CC(=O)O)c1 [TAK875, fasiglifam, reference compound] | lowered

Test system: Zucker fa/fa rats
Assay: Acute oral glucose tolerance test (OGTT)
Assay type: in vivo, rat
Details: oral; Example 1 at 1, 3 and 10 mg/kg, TAK875 at 1 mg/kg; p<0.05
Protocol: OGTTs are performed in Zucker fa/fa rats, a rodent model of insulin resistance, after 1 and 21 days of orally administered material at 1.0, 3.0 and 10 mg/kg. TAK875 at 1 mg/kg served as the positive control. The OGTTs are performed one hour post compound administration with blood samples taken for determination of glucose and insulin levels at 10, 20, 40, 60, and 120 minutes post glucose administration.

SMILES | AUCs for glucose lowering
Cc1cc(OCCCS(C)(=O)=O)cc(C)c1-c1cccc(COc2ccc3c(c2)OC[C@H]3CC(=O)O)c1 [TAK875, fasiglifam, reference compound] | statistically significant

Target: hGPR40 (Homo sapiens, UniProt O14842)
Assay: Calcium Flux Primary Assay (FLIPR, Calcium 4 Dye)
Assay type: cell-based
Set-up: expressed in transfected cells; host or cells: HEK293
Details: HEK293, HEK293 cells over expressing human GPR40; vs natural ligand linoleic acid; read-out: efficacy (maximal response compared to linoleic acid)
Protocol: HEK293 cells over expressing the human GPR40 cDNA maintained in Dulbecco's modified Eagle's medium with F12 medium in 3:1 ratio supplemented with 10% FBS and 800 μg/ml geneticin at 37° C. and 5% CO2 are employed for the study. Agonist assays are performed using a Calcium 4 Dye assay kit (Molecular Devices) in the presence or absence of 0.1% fatty acid free BSA in the assay buffer (1×HBSS (Hank's Balanced Salt Solution) & 20 mM HEPES (4-(2-hydroxyethyl)-1-piperazineethanesulfonic acid). Receptor activation is measured as an increase in intracellular calcium using the Fluorometric Imaging Plate Reader (FLIPR). Maximum change in fluorescence over the base line is used to determine the agonist response. The EC50 value of the compound is calculated using Excel Fit software (version 4; IDBS) by plotting concentration vs relative fluorescence units (RFUs).

Sequence of hGPR40 (O14842 whole entry): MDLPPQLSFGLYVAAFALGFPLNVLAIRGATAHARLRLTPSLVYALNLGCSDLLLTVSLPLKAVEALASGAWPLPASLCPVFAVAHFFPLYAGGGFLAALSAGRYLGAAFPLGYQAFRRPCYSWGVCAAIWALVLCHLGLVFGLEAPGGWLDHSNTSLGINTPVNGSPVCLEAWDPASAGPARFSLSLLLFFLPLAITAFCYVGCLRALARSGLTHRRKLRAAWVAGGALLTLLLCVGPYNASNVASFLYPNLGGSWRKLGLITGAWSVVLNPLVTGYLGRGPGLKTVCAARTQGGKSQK

SMILES | Emax
CC#C[C@@H](CC(=O)O)c1ccc(OCc2cc(-c3ccc(OC)cc3)cn3ncnc23)cc1 [Example 2, (S)-3-{4-[6-(4-Methoxy-phenyl)-[1,2,4]triazolo[1,5-a]pyridin-8-ylmethoxy]-phenyl}-hex-4-ynoic acid] | > 35%
CC#C[C@@H](CC(=O)O)c1ccc(OCc2cc(-c3c(C)cccc3F)cn3ncnc23)cc1 [Example 3, (S)-3-{4-[6-(2-Fluoro-6-methyl-phenyl)-[1,2,4]triazolo[1,5-a]pyridin-8-ylmethoxy]-phenyl}-hex-4-ynoic acid] | > 35%
CC#C[C@@H](CC(=O)O)c1ccc(OCc2cc(-c3ccc(OC)cc3C)cn3ncnc23)cc1 [Example 4, (S)-3-{4-[6-(4-Methoxy-2-methyl-phenyl)-[1,2,4]triazolo[1,5-a]pyridin-8-ylmethoxy]-phenyl}-hex-4-ynoic acid] | > 35%
CC#C[C@@H](CC(=O)O)c1ccc(OCc2cc(-c3c(C)cc(OC)cc3C)cn3ncnc23)cc1 [Example 5, (S)-3-{4-[6-(4-Methoxy-2,6-dimethyl-phenyl)-[1,2,4]triazolo[1,5-a]pyridin-8-ylmethoxy]-phenyl}-hex-4-ynoic acid] | > 35%
CC#C[C@@H](CC(=O)O)c1ccc(OCc2cc(-c3cc(OC)ccc3F)cn3ncnc23)cc1 [Example 6] | > 35%
CC#C[C@@H](CC(=O)O)c1ccc(OCc2cc(-c3ccc(OCCCS(C)(=O)=O)cc3C)cn3ncnc23)cc1 [Example 7, (S)-3-(4-{6-[4-(3-Methanesulfonyl-propoxy)-2-methyl-phenyl]-[1,2,4]triazolo[1,5-a]pyridin-8-ylmethoxy}-phenyl)-hex-4-ynoic acid] | > 35%
CC#C[C@@H](CC(=O)O)c1ccc(OCc2cc(-c3ccc(OCCC(C)(C)O)cc3C)cn3ncnc23)cc1 [Example 8, (S)-3-(4-{6-[4-(3-Hydroxy-3-methyl-butoxy)-2-methyl-phenyl]-[1,2,4]triazolo[1,5-a]pyridin-8-ylmethoxy}-phenyl)-hex-4-ynoic acid] | > 35%
CC#C[C@@H](CC(=O)O)c1ccc(OCc2cc(-c3ccc(C(C)C)cc3)cn3ncnc23)cc1 [Example 9, (S)-3-{4-[6-(4-Isopropyl-phenyl)-[1,2,4]triazolo[1,5-a]pyridin-8-ylmethoxy]-phenyl}-hex-4-ynoic acid] | > 35%
CC#C[C@@H](CC(=O)O)c1ccc(OCc2cc(-c3c(C)cccc3C)cn3ncnc23)cc1 [Example 11, (S)-3-{4-[6-(2,6-Dimethyl-phenyl)-[1,2,4]triazolo[1,5-a]pyridin-8-ylmethoxy]-phenyl}-hex-4-ynoic acid] | > 35%
CC#C[C@@H](CC(=O)O)c1ccc(OCc2cc(-c3cc(Cl)ccc3C)cn3ncnc23)cc1 [Example 12] | > 35%
CC#C[C@@H](CC(=O)O)c1ccc(OCc2cc(-c3ccc(C#N)cc3)cn3ncnc23)cc1 [Example 13, (S)-3-{4-[6-(4-Cyano-phenyl)-[1,2,4]triazolo[1,5-a]pyridin-8-ylmethoxy]-phenyl}-hex-4-ynoic acid] | > 35%
CC#C[C@@H](CC(=O)O)c1ccc(OCc2cc(-c3ccc(C(F)F)cc3)cn3ncnc23)cc1 [Example 15, (S)-3-{4-[6-(4-Difluoromethyl-phenyl)-[1,2,4]triazolo[1,5-a]pyridin-8-ylmethoxy]-phenyl}-hex-4-ynoic acid] | > 35%
CC#C[C@@H](CC(=O)O)c1ccc(OCc2cc(-c3ccc(OCC#N)cc3C)cn3ncnc23)cc1 [Example 16, (S)-3-{4-[6-(4-Cyanomethoxy-2-methyl-phenyl)-[1,2,4]triazolo[1,5-a]pyridin-8-ylmethoxy]-phenyl}-hex-4-ynoic acid] | > 35%
CC#C[C@@H](CC(=O)O)c1ccc(OCc2cc(-c3ccc(S(C)(=O)=O)cc3)cn3ncnc23)cc1 [Example 17] | > 35%
CC#C[C@@H](CC(=O)O)c1ccc(OCc2cc(-c3ccc(S(N)(=O)=O)cc3C)cn3ncnc23)cc1 [Example 18, (S)-3-{4-[6-(2-Methyl-4-sulfamoyl-phenyl)-[1,2,4]triazolo[1,5-a]pyridin-8-ylmethoxy]-phenyl}-hex-4-ynoic acid] | > 35%
CC#C[C@@H](CC(=O)O)c1ccc(OCc2cc(-c3ccc(C(C)(C)C#N)cc3)cn3ncnc23)cc1 [Example 19, (S)-3-(4-{6-[4-(Cyano-dimethyl-methyl)-phenyl]-[1,2,4]triazolo[1,5-a]pyridin-8-ylmethoxy}-phenyl)-hex-4-ynoic acid] | > 35%
CC#C[C@@H](CC(=O)O)c1ccc(OCc2cc(-c3ccc(OC(F)F)cc3C)cn3ncnc23)cc1 [Example 20, (S)-3-{4-[6-(4-Difluoromethoxy-2-methyl-phenyl)-[1,2,4]triazolo[1,5-a]pyridin-8-ylmethoxy]-phenyl}-hex-4-ynoic acid] | > 35%
